# US10851067B2, “Kv7 channel activators compositions and methods of use” (Knopp Biosciences LLC, priority 2018, dated 2020)
# Molecular target: Kv7.2/7.3 (Homo sapiens, UniProt O43525+O43526)
# Assay: Kv7.2/7.3 Activation Assay, QPatch single concentration screen
# Type: cell-based
# Design: host or cells: HEK cells, tetracycline-inducible expression; key: 1.2-2.9 (+); 3-3.9 (++); >4 (+++) fold increase over baseline; O represents open channel at holding potential
# Settings: Kv7.2/Kv7.3 co-expressing HEK cells, compound concentration 3 μM, steady-state current at end of 2 s pulse to −30 mV
# In short: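 Tetracycline-induced HEK cells expressing human Kv7.2/7.3, recorded 24 h post-induction by automated planar patch clamp. From −80 mV, 2 s steps to −30 mV then 100 ms to −120 mV; compound tested at 3 μM (0.1% DMSO). Steady-state current at end of −30 mV step gives fold increase over baseline.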
row,Compound,Kv7.2/7.3 Activity: increase over baseline in current
1,"CN(C)c1ccc2nc(NC(=O)CC(C)(O)c3ccccc3)n(C3CCC3)c2c1F (single isomer, unassigned) [Example 485, N-(1-cyclobutyl-6-(dimethylamino)-7-fluoro-1H-benzo[d]imidazol-2-yl)-3-hydroxy-3-phenylbutanamide]",+++ (>4 (+++) fold increase over baseline)
2,"CC(O)(CC(=O)Nc1nc2cc(F)c(C#N)cc2n1C1(C)CCC1)c1ccccc1F (single isomer, unassigned) [Example 373, N-(6-cyano-5-fluoro-1-(1-methylcyclobutyl)-1H-benzo[d]imidazol-2-yl)-3-(2-fluorophenyl)-3-hydroxybutanamide]",++ (3-3.9 (++))
3,"CC(C)(C)CC(=O)Nc1nc2c(F)cc(OC(F)F)cc2n1C1CCC1 [Example 331, N-(1-cyclobutyl-6-(difluoromethoxy)-4-fluoro-1H-benzo[d]imidazol-2-yl)-3,3-dimethylbutanamide]",+++ (>4 (+++) fold increase over baseline)
4,"COc1cccc2nc(NC(=O)CC(C)(O)c3ccccc3)n(C3CCC3)c12 (single isomer, unassigned) [Example 358, N-(1-cyclobutyl-7-methoxy-1H-benzo[d]imidazol-2-yl)-3-hydroxy-3-phenylbutanamide]",+ (1.2-2.9 (+))
5,"CC(O)(CC(=O)Nc1nc2cccc(C#N)c2n1C1(C)CCC1)c1ccccc1 (single isomer, unassigned) [Example 375, N-(7-cyano-1-(1-methylcyclobutyl)-1H-benzo[d]imidazol-2-yl)-3-hydroxy-3-phenylbutanamide]",+ (1.2-2.9 (+))
6,"CC(C)(O)c1ccc2nc(NC(=O)CC(C)(O)c3ccccc3)n(C34CC(C3)C4)c2c1 (single isomer, unassigned) [Example 371, N-(1-(bicyclo[1.1.1]pentan-1-yl)-6-(2-hydroxypropan-2-yl)-1H-benzo[d]imidazol-2-yl)-3-hydroxy-3-phenylbutanamide]",O
7,"CC(C)(CC(=O)Nc1nc2c(F)cc(C#N)cc2n1C(C)(C)C)C1CC1 [Example 482, N-(1-(tert-butyl)-6-cyano-4-fluoro-1H-benzo[d]imidazol-2-yl)-3-cyclopropyl-3-methylbutanamide]",+++ (>4 (+++) fold increase over baseline)
8,"CC(C)(C)CC(=O)Nc1nc2ccc(C#N)cc2n1C1(C)CCC1 [Example 337, N-(6-cyano-1-(1-methylcyclobutyl)-1H-benzo[d]imidazol-2-yl)-3,3-dimethylbutanamide]",++ (3-3.9 (++))
9,"CC(C)(C)n1c(NC(=O)CC2CC(F)(F)C2(F)F)nc2c(F)cc(C#N)cc21 (single isomer, unassigned) [Example 416, N-(1-(tert-butyl)-6-cyano-4-fluoro-1H-benzo[d]imidazol-2-yl)-2-(2,2,3,3-tetrafluorocyclobutyl)acetamide]",++ (3-3.9 (++))
10,"CC(O)(CC(=O)Nc1nc2ccc(C#N)cc2n1C1CCC1)c1ccccc1F (single isomer, unassigned) [Example 452, N-(6-cyano-1-cyclobutyl-1H-benzo[d]imidazol-2-yl)-3-(2-fluorophenyl)-3-hydroxybutanamide]",O
11,"CC(C)(C)CC(=O)Nc1nc2ccc(C3(O)CCC3)c(F)c2n1C1CCC1 [Example 451, N-(1-cyclobutyl-7-fluoro-6-(1-hydroxycyclobutyl)-1H-benzo[d]imidazol-2-yl)-3,3-dimethylbutanamide]",O
12,"COc1cccc2nc(NC(=O)CC(C)(O)c3ccccc3)n(C3CCC3)c12 (single isomer, unassigned) [Example 442, N-(1-cyclobutyl-7-methoxy-1H-benzo[d]imidazol-2-yl)-3-hydroxy-3-phenylbutanamide]",+ (1.2-2.9 (+))
13,"C[C@H](CC(=O)Nc1nc2ccc(C(C)(C)O)cc2n1C1CCC1)c1ccccc1 [Example 336, (R)-N-(1-cyclobutyl-6-(2-hydroxypropan-2-yl)-1H-benzo[d]imidazol-2-yl)-3-phenylbutanamide]",+ (1.2-2.9 (+))
14,"CC(C)(C)CC(=O)Nc1nc2cc(F)ccc2n1C1CCC1 [Example 449, N-(1-cyclobutyl-5-fluoro-1H-benzo[d]imidazol-2-yl)-3,3-dimethylbutanamide]",++ (3-3.9 (++))
15,"CC(O)(CC(=O)Nc1nc2ccc(C#N)cc2n1CC(F)(F)F)c1ccccc1F (single isomer, unassigned) [Example 483, N-(6-cyano-1-(2,2,2-trifluoroethyl)-1H-benzo[d]imidazol-2-yl)-3-(2-fluorophenyl)-3-hydroxybutanamide]",++ (3-3.9 (++))
16,"CC(C)(C)CC(=O)Nc1nc2c(C(F)(F)F)cc(Br)cc2n1C1CCC1 [Example 477, N-(6-bromo-1-cyclobutyl-4-(trifluoromethyl)-1H-benzo[d]imidazol-2-yl)-3,3-dimethylbutanamide]",+++ (>4 (+++) fold increase over baseline)
17,"CC(C)(O)c1cc(F)c2nc(NC(=O)CSC(F)(F)F)n(C3CCC3)c2c1 [Example 413, N-(1-cyclobutyl-4-fluoro-6-(2-hydroxypropan-2-yl)-1H-benzo[d]imidazol-2-yl)-2-((trifluoromethyl)thio)acetamide]",+++ (>4 (+++) fold increase over baseline)
18,"CC(C)(C)CC(=O)Nc1nc2c(F)cc(C#N)cc2n1C(C)(C)C [Example 420, N-(1-(tert-butyl)-6-cyano-4-fluoro-1H-benzo[d]imidazol-2-yl)-3,3-dimethylbutanamide]",+ (1.2-2.9 (+))
19,"CC(O)(CC(=O)Nc1nc2cc(F)cc(C#N)c2n1C1(C)CCC1)c1ccccc1 (single isomer, unassigned) [Example 465, N-(7-cyano-5-fluoro-1-(1-methylcyclobutyl)-1H-benzo[d]imidazol-2-yl)-3-hydroxy-3-phenylbutanamide]",++ (3-3.9 (++))
20,"CC1(n2c(NC(=O)CC(O)(CF)CF)nc3ccc(OC(F)F)c(F)c32)CCC1 [Example 423, N-(6-(difluoromethoxy)-7-fluoro-1-(1-methylcyclobutyl)-1H-benzo[d]imidazol-2-yl)-4-fluoro-3-(fluoromethyl)-3-hydroxybutanamide]",+ (1.2-2.9 (+))
21,"CC(C)(O)c1c(F)cc2nc(NC(=O)CC(C)(C)C(F)(F)F)n(C3CCC3)c2c1F [Example 470, N-(1-cyclobutyl-5,7-difluoro-6-(2-hydroxypropan-2-yl)-1H-benzo[d]imidazol-2-yl)-4,4,4-trifluoro-3,3-dimethylbutanamide]",+ (1.2-2.9 (+))
22,"COc1ccc2nc(NC(=O)CC(C)(C)C)n(C3CCC3)c2c1F [Example 429, N-(1-cyclobutyl-7-fluoro-6-methoxy-1H-benzo[d]imidazol-2-yl)-3,3-dimethylbutanamide]",+++ (>4 (+++) fold increase over baseline)
23,"CC(C)(C)CC(=O)Nc1nc2c(F)cc(C3(O)CCC3)cc2n1C1CCC1 [Example 421, N-(1-cyclobutyl-4-fluoro-6-(1-hydroxycyclobutyl)-1H-benzo[d]imidazol-2-yl)-3,3-dimethylbutanamide]",+++ (>4 (+++) fold increase over baseline)
24,"CC(O)(CC(=O)Nc1nc2ccc(OC(F)F)cc2n1C1CCC1)c1ccccc1 (single isomer, unassigned) [Example 402, N-(1-cyclobutyl-6-(difluoromethoxy)-1H-benzo[d]imidazol-2-yl)-3-hydroxy-3-phenylbutanamide]",++ (3-3.9 (++))
25,"CC(CF)(CF)CC(=O)Nc1nc2ccc(C(C)(C)O)cc2n1C1CCC1 [Example 370, N-(1-cyclobutyl-6-(2-hydroxypropan-2-yl)-1H-benzo[d]imidazol-2-yl)-4-fluoro-3-(fluoromethyl)-3-methylbutanamide]",++ (3-3.9 (++))
26,"CC(C)(CC(=O)Nc1nc2c(F)cc(OC(F)F)cc2n1C1CCC1)C1CC1 [Example 390, N-(1-cyclobutyl-6-(difluoromethoxy)-4-fluoro-1H-benzo[d]imidazol-2-yl)-3-cyclopropyl-3-methylbutanamide]",+ (1.2-2.9 (+))
27,"CC(C)(C)CC(=O)Nc1nc2ccc(C#N)c(F)c2n1C(C)(C)C [Example 387, N-(1-(tert-butyl)-6-cyano-7-fluoro-1H-benzo[d]imidazol-2-yl)-3,3-dimethylbutanamide]",++ (3-3.9 (++))
28,"CC(C)(O)c1cc(F)c2nc(NC(=O)CC(C)(C)C(F)(F)F)n(C3CCC3)c2c1F [Example 385, N-(1-cyclobutyl-4,7-difluoro-6-(2-hydroxypropan-2-yl)-1H-benzo[d]imidazol-2-yl)-4,4,4-trifluoro-3,3-dimethylbutanamide]",O
29,"CC(=O)c1c(F)ccc2nc(NC(=O)CC(C)(O)c3ccccc3)n(C3(C)CCC3)c12 (single isomer, unassigned) [Example 360, N-(7-acetyl-6-fluoro-1-(1-methylcyclobutyl)-1H-benzo[d]imidazol-2-yl)-3-hydroxy-3-phenylbutanamide]",O
30,"CC(C)(CC(=O)Nc1nc2ccc(C#N)cc2n1C1(C)CCC1)C1CC1 [Example 379, N-(6-cyano-1-(1-methylcyclobutyl)-1H-benzo[d]imidazol-2-yl)-3-cyclopropyl-3-methylbutanamide]",++ (3-3.9 (++))
